Values after ≈ are worked out from the molar mass of the structure shown. Active and inactive are the calls of the source.
Key:
Staphylococcus aureus [1] = assay: Antimicrobial activity against methicillin-resistant Staphylococcus aureus CBD-635 assessed as complete inhibition of bacterial growth at 5 times MIC after overnight incubation in presence of tetrahydrofolic acid; format: functional, organism-based
Staphylococcus aureus [2] = assay: Antimicrobial activity against methicillin-resistant Staphylococcus aureus CBD-635 assessed as zone of inhibition at 5 mg/ml after 24 hrs by disk diffusion assay; format: functional; conditions: for zone of inhibition at 5000 µg/mL: CBD-635, 24 h, read-out: IZ
Staphylococcus aureus [3] = assay: Antimicrobial activity against methicillin-resistant Staphylococcus aureus CBD-635 assessed as complete inhibition of bacterial growth after overnight incubation; format: functional

| SMILES | inhibition (Staphylococcus aureus [1]) | inhibition zone (IZ) (Staphylococcus aureus [2]) | zone of inhibition at 5000 µg/mL (Staphylococcus aureus [2]) | MIC (Staphylococcus aureus [3]) |
| --- | --- | --- | --- | --- |
| Cc1ccc2c(NCc3ccco3)nc(NC(C)C)nc2c1 | inactive | inactive | – | – |
| Clc1ccc(Nc2nc(NCc3ccco3)nc3ccccc23)cc1 | inactive | – | 10 mm | 29 µM (≈ 10.2 µg/mL) |
| CSCCNc1nc(NC(C)C)nc2ccccc12 | inactive | – | 9 mm | > 360 µM |
| CC(C)Nc1nc(NC2CC2)c2ccccc2n1 | inactive | inactive | – | – |
| c1ccc(CNc2nc(NCc3ccco3)c3ccccc3n2)cc1 | inactive | – | 11 mm | 30 µM (≈ 9.91 µg/mL) |
| COc1ccc(CNc2nc(NCc3ccc(Cl)cc3)c3ccc(Cl)cc3n2)cc1 | inactive | – | – | 51 µM (≈ 22.4 µg/mL) |
| CC(C)Nc1nc(NC(C)(C)C)c2ccccc2n1 | inactive | inactive | – | – |
| Cc1cccc2nc(NC(C)C)nc(NCc3ccco3)c12 | inactive | inactive | – | – |
| COc1ccc(CNc2nc(NCc3ccccc3)c3ccc(Cl)cc3n2)cc1 | inactive | – | – | 22 µM (≈ 8.91 µg/mL) |
| COc1cccc2nc(NC(C)C)nc(NCc3ccco3)c12 | inactive | – | 9 mm | > 80 µM |
| COc1ccc2c(NCc3ccco3)nc(NC(C)C)nc2c1 | inactive | inactive | – | – |
| CC(C)Nc1nc(NC(C)C)c2ccccc2n1 | inactive | inactive | – | – |
| COc1ccc2nc(NC(C)C)nc(NCc3ccco3)c2c1 | inactive | – | 10 mm | 80 µM (≈ 25 µg/mL) |
| CC(C)Nc1nc(NCc2ccco2)c2cccc(Cl)c2n1 | inactive | – | 10 mm | 32 µM (≈ 10.1 µg/mL) |
| Cc1ccc2nc(NC(C)C)nc(NCc3ccco3)c2c1 | inactive | inactive | – | – |
| CNc1nc(NCc2ccco2)nc2ccccc12 | inactive | – | 10 mm | 390 µM (≈ 99.2 µg/mL) |
| CCCCNc1nc(Nc2ccccc2)c2ccccc2n1 | inactive | – | 14 mm | 34 µM (≈ 9.94 µg/mL) |
| Cc1ccc(Nc2nc(NCc3ccco3)c3ccccc3n2)cc1 | inactive | – | 9 mm | 30 µM (≈ 9.91 µg/mL) |
| CCNc1nc(NCc2ccco2)c2ccccc2n1 | inactive | inactive | – | – |
| c1coc(CNc2nc(NC3CCCCC3)nc3ccccc23)c1 | inactive | – | 10 mm | 78 µM (≈ 25.1 µg/mL) |

| SMILES | inhibition (Staphylococcus aureus [1]) | inhibition zone (IZ) (Staphylococcus aureus [2]) | zone of inhibition at 5000 µg/mL (Staphylococcus aureus [2]) | MIC (Staphylococcus aureus [3]) |
| --- | --- | --- | --- | --- |
| OCCNc1nc(NCc2ccco2)c2ccccc2n1 | inactive | inactive | – | – |
| COc1cccc2c(NCc3ccco3)nc(NC(C)C)nc12 | inactive | inactive | – | – |
| CCNc1nc(NC(C)C)c2ccccc2n1 | inactive | inactive | – | – |
| c1coc(CNc2nc(NC3CCCC3)nc3ccccc23)c1 | inactive | – | 12 mm | 160 µM (≈ 49.3 µg/mL) |
| c1ccc(CNc2nc(Nc3ccccc3)c3ccccc3n2)cc1 | inactive | – | 10 mm | 31 µM (≈ 10.1 µg/mL) |
| CC(C)Nc1nc(N(C)C)c2ccccc2n1 | inactive | inactive | – | – |
| CNc1nc(NC(C)C)c2ccccc2n1 | inactive | inactive | – | – |
| CNc1nc(NC2CCCC2)nc2ccccc12 | inactive | inactive | – | – |
| CCNc1nc(NC(C)C)nc2ccccc12 | inactive | inactive | – | – |
| c1coc(CNc2nc(NC3CC3)nc3ccccc23)c1 | inactive | inactive | – | – |
| CC(C)Nc1nc(NCC(F)(F)F)c2ccccc2n1 | inactive | inactive | – | – |
| CC(C)Nc1nc(NCC2CCCO2)c2ccccc2n1 (stereo not drawn) | inactive | inactive | – | – |
| FC(F)(F)CNc1nc(NCc2ccco2)c2ccccc2n1 | inactive | inactive | – | – |
| c1ccc(Nc2nc(Nc3ccccc3)c3ccccc3n2)cc1 | inactive | – | 10 mm | 32 µM (≈ 10 µg/mL) |
| CC(C)(C)Nc1nc(NCc2ccco2)c2ccccc2n1 | inactive | – | 9 mm | 340 µM (≈ 101 µg/mL) |
| Clc1ccc(CNc2nc(NCc3ccc(Cl)cc3)c3ccc(Cl)cc3n2)cc1 | inactive | – | – | 68 µM (≈ 30.2 µg/mL) |
| CC(C)Nc1nc(NCc2ccco2)c2cc(Cl)ccc2n1 | inactive | – | 11 mm | 32 µM (≈ 10.1 µg/mL) |
| CCOC(=O)CNc1nc(NC(C)C)nc2ccccc12 | inactive | inactive | – | – |
| CC(C)Nc1nc(NCc2ccco2)nc2ccccc12 | inactive | – | 12 mm | 35 µM (≈ 9.88 µg/mL) |
| CC(C)Nc1nc(NCc2ccco2)c2ccccc2n1 | inactive | – | 10 mm | 180 µM (≈ 50.8 µg/mL) |

| SMILES | inhibition (Staphylococcus aureus [1]) | inhibition zone (IZ) (Staphylococcus aureus [2]) | zone of inhibition at 5000 µg/mL (Staphylococcus aureus [2]) | MIC (Staphylococcus aureus [3]) |
| --- | --- | --- | --- | --- |
| c1coc(CNc2nc(NC3CCC3)nc3ccccc23)c1 | inactive | inactive | – | – |
| CC(C)Nc1nc(NC2CCCC2)nc2ccccc12 | inactive | – | 8 mm | 190 µM (≈ 51.4 µg/mL) |
| CC(C)Nc1nc(NC2CCCC2)c2ccccc2n1 | inactive | – | 10 mm | 37 µM (≈ 10 µg/mL) |
| CNc1nc(NCCO)nc2ccccc12 | inactive | inactive | – | – |
| CC(C)Nc1nc(NCc2ccccc2)c2ccccc2n1 | inactive | – | 13 mm | 34 µM (≈ 9.94 µg/mL) |
| CCCCNc1nc(Nc2ccccc2)nc2ccccc12 | inactive | – | 12 mm | 34 µM (≈ 9.94 µg/mL) |
| CNc1nc(NC)c2ccccc2n1 | inactive | inactive | – | – |
| CNc1nc(NC(C)C)nc2ccccc12 | inactive | inactive | – | – |
| CC(C)Nc1nc(NCc2ccco2)c2ccc(Cl)cc2n1 | inactive | – | 12 mm | 32 µM (≈ 10.1 µg/mL) |
| CNc1nc(NCc2ccco2)c2ccccc2n1 | inactive | inactive | – | – |
| CC(C)Nc1nc(NCCO)nc2ccccc12 | inactive | inactive | – | – |
| Clc1ccc(Nc2nc(NCc3ccco3)c3ccccc3n2)cc1 | inactive | – | 10 mm | 29 µM (≈ 10.2 µg/mL) |
| CC(C)Nc1nc(NCc2ccccc2)nc2ccccc12 | inactive | – | 13 mm | 34 µM (≈ 9.94 µg/mL) |
| CC(C)Nc1nc(NCc2ccco2)c2c(Cl)cccc2n1 | inactive | – | 9 mm | > 78 µM |
| CC(C)Nc1nc(Nc2ccccc2)c2ccccc2n1 | inactive | – | 10 mm | 36 µM (≈ 10 µg/mL) |
| CC(C)Nc1nc(NC2CC2)nc2ccccc12 | inactive | inactive | – | – |
| CNc1nc(NC2CC2)nc2ccccc12 | inactive | inactive | – | – |
| Cc1cccc2c(NCc3ccco3)nc(NC(C)C)nc12 | inactive | – | 10 mm | 340 µM (≈ 101 µg/mL) |

Reference: ChEMBL document CHEMBL3259619, “Antibacterial activity of a series of N2,N4-disubstituted quinazoline-2,4-diamines” (J Med Chem, 2014)
